Data: US12473291B2 (priority 2019, dated 2025)
Where two headings read alike, the source gives them in different places.

Legend:
SD rats = experiment: animal or person; assay type: in vivo; conditions: for ED50: Rattus norvegicus
KM mice = experiment: animal or person; assay type: in vivo; conditions: for ED50: Mus musculus
[1] = SD rats (male, 220-300 g), injection via the tail vein, disappearance of righting reflex, read-out: ED50
[2] = SD rats, single tail vein injection at 2×ED50, time from disappearance to recovery of righting reflex
[3] = SD rats, single tail vein injection at 2×ED50, time from recovery of righting reflex to free crawling
[4] = KM mice, single tail vein injection at 2×ED50, time from disappearance to recovery of righting reflex
[5] = KM mice, single tail vein injection at 2×ED50, time from recovery of righting reflex to free crawling
[6] = KM mice (male, 18-22 g), injection via the tail vein, disappearance of righting reflex, read-out: ED50

In the case of `Cc1cnc2n1-c1cc(Br)c(Br)cc1C(c1ccccn1)=N[C@H]2CCC(=O)OC1(C(=O)OOC2CC(Cl)C2)CC1` (some centres unmarked) [Example 64], the ED50 (SD rats; [1]) is reported as 2.7 mg/kg, the “2ED50 duration” value (SD rats; [2]) is reported as 3.15 min and the 2ED50 recovery time (SD rats; [3]) is reported as 2.18 min. For the same compound, the Quality of recovery (SD rats; SD rats, tail vein injection) was “++ (“++” means 1-3 min)”, the 2ED50 duration (KM mice; [4]) was 3.09 min and the 2ED50 recovery time (KM mice; [5]) was 2.12 min. For the same compound, the Quality of recovery (KM mice; KM mice, tail vein injection) was “+++ (“+++” means 3-5 min)” and the ED50 (KM mice; [6]) was 24.1 mg/kg.
With `CCOC(CCC(C)(C)OC(=O)CC[C@@H]1N=C(c2ccccn2)c2cc(Br)cc(Cl)c2-n2c(C)cnc21)C(=O)OC` (stereo partly drawn) [Example 65, Methyl 5-((3-((4S)-8-bromo-10-chloro-1-methyl-6-(pyridine-2-yl)-4H-benzo [f]imidazo[1,2-a][1,4]diazapin-4-yl)propionyl)oxy)-2-ethoxy-5-methylcaproate] the ED50 (SD rats; [1]) was 6.3 mg/kg, the “2ED50 duration” value (SD rats; [2]) was 3.25 min and the 2ED50 recovery time (SD rats; [3]) was 2.29 min. For the same compound, the Quality of recovery (SD rats; SD rats, tail vein injection) was “++++ (“++++” means 5-10 min)”, the 2ED50 duration (KM mice; [4]) was 3.4 min and the 2ED50 recovery time (KM mice; [5]) was 2.04 min. The Quality of recovery (KM mice; KM mice, tail vein injection) was “++ (“++” means 1-3 min)” and the ED50 (KM mice; [6]) was 31.2 mg/kg.
`Cc1c(Br)cc2c(c1Cl)-n1c(C)cnc1[C@H](CCC(=O)OC(C)(C)NC(=O)OC1CCC1)N=C2c1ccccn1` [Example 66] was tested, and the ED50 (SD rats; [1]) was 4.8 mg/kg, the “2ED50 duration” value (SD rats; [2]) was 4.02 min and the 2ED50 recovery time (SD rats; [3]) was 2.17 min. For the same compound, the Quality of recovery (SD rats; SD rats, tail vein injection) was “++ (“++” means 1-3 min)”, the 2ED50 duration (KM mice; [4]) was 3.14 min and the 2ED50 recovery time (KM mice; [5]) was 2.35 min. The Quality of recovery (KM mice; KM mice, tail vein injection) was “+++ (“+++” means 3-5 min)” and the ED50 (KM mice; [6]) was 30.4 mg/kg.
With `COC(=O)C(CC(F)C(C)(C)OC(=O)CC[C@@H]1N=C(c2ccccn2)c2cc(Br)c(OC)cc2-n2c(C)cnc21)OC` (stereo partly drawn) [Example 67, Methyl 5-((3-((4S)-8-bromo-9-methoxy-1-methyl-6-(pyridine-2-yl)-4H-benzo [f]imidazo[1,2-a][1,4]diazapin-4-yl)propionyl)oxy)-4-fluoro-2-methoxy-5-hexanoate adipate] the ED50 (SD rats; [1]) was 6.9 mg/kg, the “2ED50 duration” value (SD rats; [2]) was 3.18 min and the 2ED50 recovery time (SD rats; [3]) was 3.01 min. The Quality of recovery (SD rats; SD rats, tail vein injection) was “+++ (“+++” means 3-5 min)”, the 2ED50 duration (KM mice; [4]) was 2.58 min and the 2ED50 recovery time (KM mice; [5]) was 2.38 min. The Quality of recovery (KM mice; KM mice, tail vein injection) was “++ (“++” means 1-3 min)” and the ED50 (KM mice; [6]) was 31.7 mg/kg.
For `CCC(CC)OC(=O)OC(OC(=O)CC[C@@H]1N=C(c2ccccn2)c2cc(Cl)c(OC(F)(F)F)cc2-n2c(C)cnc21)C1CC(F)C(CC)C1` (stereo partly drawn) [Example 68, (3-Ethyl-4-fluorocyclopentyl) (((pentanyl-3-yloxy)carbonyl)oxy)methyl 3-((4S)-8-chloro-1-methyl-6-(pyridine-2-yl)-9-(trifluoromethoxy)-4H-benzo[f]imidazo[1,2-a][1,4]diazapin-4-yl) propionate L-aspartate], the ED50 (SD rats; [1]) was 5.9 mg/kg, the “2ED50 duration” value (SD rats; [2]) was 4.28 min and the 2ED50 duration (KM mice; [4]) was 3.09 min. The ED50 (KM mice; [6]) was 28.9 mg/kg.
For `CCOC(=O)C1(OC(=O)CC[C@@H]2N=C(c3ccccn3)c3cc(Cl)c(Cl)cc3-n3c(C)cnc32)CC1` [Example 69, Ethyl 1-((3-((4S)-8,9-dichloro-1-methyl-6-(pyridine-2-yl)-4H-benzo[f]imidazo[1,2-a][1,4]diaza-4-yl)propionyl)oxy) cyclopropane-1-carboxylate benzoic acid], the ED50 (SD rats) was 6.1 mg/kg, the “2ED50 duration” value (SD rats; rat, in vivo) was 3.16 min and the 2ED50 recovery time (SD rats; rat, in vivo) was 2.48 min. The Quality of recovery (SD rats; rat, in vivo) was “++ (key: “+” means <1 mm; “++” means 1-3 min; “+++” means 3-5 min; “++++” means 5-10 min; “+++++” means >10 mm)”, the ED50 (KM mice) was 23.8 mg/kg and the 2ED50 duration (KM mice; mouse, in vivo) was 3.45 min. For the same compound, the 2ED50 recovery time (KM mice; mouse, in vivo) was 2.38 min and the Quality of recovery (KM mice; mouse, in vivo) was “++++ (key: “+” means <1 mm; “++” means 1-3 min; “+++” means 3-5 min; “++++” means 5-10 min; “+++++” means >10 mm)”.
